Drawing on patent publication US7452887B2, “Quinoline- and isoquinoline-based compounds exhibiting ATP-utilizing enzyme inhibitory activity, and compositions, and uses thereof” (Amphora Discovery Corporation, priority 2004, dated 2008), this text covers Activity for 33 compounds.

The structures appear in SMILES notation.

This assay deals with MAPKAPK2 (Homo sapiens, UniProt P49137). Description: HTS ATP-utilizing enzyme assay, off-chip mobility-shift (Caliper HTS 250). The conditions noted are these: test compound 10 μM, kinase listed = active (greater than six-sigma from the mean activity of inactive compounds). Format: biochemical. From the text:
The following procedures describe the reagent and plate preparation for a HTS of an ATP-utilizing enzyme, such as a protein kinase, run in an off-chip mobility-shift assay format. The following provides an HTS protocol for running a protein kinase HTS screen on a Caliper HTS 250 microfluidics system. The following parameters are dependent on the protein kinase used and can be determined by one skilled in the art as part of a typical assay development process. For example, the peptide substrate used can be identified from the current literature, by screening a peptide library of potential protein kinase substrates, or by other applicable means accepted in the field.
The following table provides typical screen assay parameters appropriate for a Caliper HTS 250 microfluidics system.
The reagents and buffers listed in the following table are generally applicable for developing and running an HTS screen on a human protein kinase using the Caliper HTS 250 system.
The following reagents were prepared using the previously described buffers.
A 2× Master Buffer solution was prepared by combining 200 mL of 1 M HEPES, pH 7.5, 2 mL of 10% Triton X-100, 20 mL of 10% BSA, and 778 mL of H2O.
A TCB Buffer solution was prepared by combining 125 mL of 2× Master Buffer, 10 mL of 0.5 M EDTA, 6.25 mL of 4% coating reagent, 1.01 mL of 100% DMSO, and 107.74 mL H2O.
Assays to determine the kinase inhibitory activity of compounds of the present disclosure were performed using a Caliper HTS 250 microfluidics device, Greiner U-bottom assay plates, a Multidrop for transfer of reagents, and Biomek FX (AMNCBM03) software. Initially, 2.4 μL of a 1 mM solution of a test compound in 100% DMSO was added to a well of the Greiner U-bottom plate. A single Greiner U-bottom plate having 24×16 wells could include multiple test compounds. […] Using the Biomek FX, 10 μL of 0.5 M EDTA was added by the span-8 to wells, indicated as 100% Control and 2.4 μL of 100% DMSO was added by the span-8 to wells, indicated as 0% Control. […] The total reaction volume in each well was 25 μL, and the concentration of the test compound was 10 μM. The assay plate was incubated for 2.5 hrs at 20° C. to 22° C. […] The inhibition of the ATP-utilizing enzyme, such as a particular protein kinase, was determined by measuring the ratio of the peptide substrate to phosphorylated product for each well of the assay plate using the Caliper HTS 250 system.
The use of six-sigma statistical limits represents a conservative method for declaring potential hits among targets. The six-sigma activity, as well as the mean population activity, can be different for each target enzyme.

MAPKAPK2, sequence (P49137 whole entry): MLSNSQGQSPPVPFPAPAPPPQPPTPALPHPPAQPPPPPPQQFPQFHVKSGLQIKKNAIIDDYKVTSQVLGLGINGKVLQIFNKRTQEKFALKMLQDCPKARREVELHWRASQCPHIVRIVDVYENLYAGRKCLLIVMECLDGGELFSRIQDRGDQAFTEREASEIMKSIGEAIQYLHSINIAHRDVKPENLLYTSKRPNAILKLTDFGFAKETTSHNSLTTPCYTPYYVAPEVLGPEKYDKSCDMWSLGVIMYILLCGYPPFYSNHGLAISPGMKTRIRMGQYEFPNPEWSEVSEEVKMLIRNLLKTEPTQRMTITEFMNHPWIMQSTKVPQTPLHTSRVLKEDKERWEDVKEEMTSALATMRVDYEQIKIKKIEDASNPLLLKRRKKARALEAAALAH

Take `CN1CCN(c2ccc(Nc3ccnc4ccc(-c5cc(Cl)ccc5Cl)cc34)cc2)CC1` [6-(2,5-dichlorophenyl)-N-(4-(4-methylpiperazin-1-yl)phenyl)quinolin-4-amine]: the Activity result was “MAPKAPK2”.
The entry for `CCCCN1CCN(c2ccc(Nc3ccnc4ccc(-c5ccc(C#N)cc5)cc34)cc2)CC1` [4-(4-(4-(4-butylpiperazin-1-yl)phenylamino)quinolin-6-yl)benzonitrile] is “MAPKAPK2”; for `N#Cc1ccc(-c2ccc3nccc(Nc4ccc(N5CCN(C6CCCCC6)CC5)cc4)c3c2)cc1` [4-(4-(4-(4-cyclohexylpiperazin-1-yl)phenylamino)quinolin-6-yl)benzonitrile] it is “MAPKAPK2”; for `CCCCN1CCN(c2ccc(Nc3ccnc4ccc(-c5ccc(OC)cc5)cc34)cc2)CC1` [N-(4-(4-butylpiperazin-1-yl)phenyl)-6-(4-methoxyphenyl)quinolin-4-amine] it is “MAPKAPK2”.
Turning to `C=Cc1ccc(-c2ccc3nccc(Nc4ccc(N5CCC(N(C)C)C5)cc4)c3c2)cc1` (stereo not drawn) [N-(4-(3-(dimethylamino)pyrrolidin-1-yl)phenyl)-6-(4-vinylphenyl)quinolin-4-amine], the Activity result is listed as “MAPKAPK2”.
The entry for `CN1CCN(c2ccc(Nc3ccnc4ccc(-c5ccc(Cl)s5)cc34)cc2)CC1` [6-(5-chlorothiophen-2-yl)-N-(4-(4-methylpiperazin-1-yl)phenyl)quinolin-4-amine] is “MAPKAPK2”; for `CN(C)C1CCN(c2ccc(Nc3ccnc4ccc(-c5csc6ccccc56)cc34)cc2)C1` (stereo not drawn) [6-(benzo[b]thiophen-3-yl)-N-(4-(3-(dimethylamino)pyrrolidin-1-yl)phenyl)quinolin-4-amine] it is “MAPKAPK2”; for `CN1CCN(c2ccc(Nc3ccnc4ccc(-c5ccc(C(F)(F)F)cc5C(F)(F)F)cc34)cc2)CC1` [6-(2,4-bis(trifluoromethyl)phenyl)-N-(4-(4-methylpiperazin-1-yl)phenyl)quinolin-4-amine] it is “MAPKAPK2”.
Consider `CN(C)C1CCN(c2ccc(Nc3ccnc4ccc(-c5ccc(Cl)cc5)cc34)cc2)C1` (stereo not drawn) [6-(4-chlorophenyl)-N-(4-(3-(dimethylamino)pyrrolidin-1-yl)phenyl)quinolin-4-amine], for which the Activity entry was “MAPKAPK2”.
The entry for `CN(C)C1CCN(c2ccc(Nc3ccnc4ccc(-c5ccc(OC(F)F)cc5)cc34)cc2)C1` (stereo not drawn) [6-(4-(difluoromethoxy)phenyl)-N-(4-(3-(dimethylamino)pyrrolidin-1-yl)phenyl)quinolin-4-amine] is “MAPKAPK2”; for `Cc1ccc(-c2ccc3nccc(Nc4ccc(N5CCC(N(C)C)C5)cc4)c3c2)cc1Cl` (stereo not drawn) [6-(3-chloro-4-methylphenyl)-N-(4-(3-(dimethylamino)pyrrolidin-1-yl)phenyl)quinolin-4-amine] it is “MAPKAPK2”.
Take `Cc1cc(-c2ccc3nccc(Nc4ccc(N5CCC(N(C)C)C5)cc4)c3c2)ccc1C#N` (stereo not drawn) [4-(4-(4-(3-(dimethylamino)pyrrolidin-1-yl)phenylamino)quinolin-6-yl)-2-methylbenzonitrile]: the Activity result was “MAPKAPK2”.
The same measure for `CN(C)CCN1CCN(c2ccc(Nc3ccnc4ccc(-c5ccccc5)cc34)cc2)CC1` [N-(4-(4-(2-(dimethylamino)ethyl)piperazin-1-yl)phenyl)-6-phenylquinolin-4-amine]: “MAPKAPK2”; for `CN1CCN(c2ccc(Nc3ccnc4ccc(-c5ccc(CCC(=O)O)cc5)cc34)cc2)CC1` [3-(4-(4-(4-(4-methylpiperazin-1-yl)phenylamino)quinolin-6-yl)phenyl)propanoic acid]: “MAPKAPK2”.
The same measure for `CCN(CC)C1CCN(c2ccc(Nc3ccnc4ccc(-c5ccc(C#N)cc5)cc34)cc2)C1` (stereo not drawn) [4-(4-(4-(3-(diethylamino)pyrrolidin-1-yl)phenylamino)quinolin-6-yl)benzonitrile]: “MAPKAPK2”.
The entry for `CCC(CC)N1CCN(c2ccc(Nc3ccnc4ccc(-c5ccccc5)cc34)cc2)CC1` [N-(4-(4-(pentan-3-yl)piperazin-1-yl)phenyl)-6-phenylquinolin-4-amine] is “MAPKAPK2”; for `c1ccc(-c2ccc3nccc(Nc4ccc(N5CCN(C6CCCCC6)CC5)cc4)c3c2)cc1` [N-(4-(4-cyclohexylpiperazin-1-yl)phenyl)-6-phenylquinolin-4-amine] it is “MAPKAPK2”.
As to `CN(C)C1CCN(c2ccc(Nc3ccnc4ccc(-c5ccc6cc[nH]c6c5)cc34)cc2)C1` (stereo not drawn) [N-(4-(3-(dimethylamino)pyrrolidin-1-yl)phenyl)-6-(1H-indol-6-yl)quinolin-4-amine], the Activity entry is reported as “MAPKAPK2”.
The entry for `CN(C)C1CCN(c2ccc(Nc3ccnc4ccc(-c5cccc6[nH]ccc56)cc34)cc2)C1` (stereo not drawn) [N-(4-(3-(dimethylamino)pyrrolidin-1-yl)phenyl)-6-(1H-indol-4-yl)quinolin-4-amine] is “MAPKAPK2”; for `OCCN1CCN(c2ccc(Nc3ccnc4ccc(-c5ccccc5)cc34)cc2)CC1` [2-(4-(4-(6-phenylquinolin-4-ylamino)phenyl)piperazin-1-yl)ethanol] it is “MAPKAPK2”.
Consider `CN(C)C1CCCN(c2ccc(Nc3ccnc4ccc(-c5ccc(C#N)cc5)cc34)cc2)C1` (stereo not drawn) [4-(4-(4-(3-(dimethylamino)piperidin-1-yl)phenylamino)quinolin-6-yl)benzonitrile], for which the Activity entry is “MAPKAPK2”.
The same measure for `CN1CCC(c2ccc(Nc3ccnc4ccc(-c5ccc(C#N)cc5)cc34)cc2)CC1` [4-(4-(4-(1-methylpiperidin-4-yl)phenylamino)quinolin-6-yl)benzonitrile]: “MAPKAPK2”.
The entry for `CN1CCN(c2ccc(Oc3ccnc4ccc(-c5ccc(C#N)cc5)cc34)cc2)CC1` [4-(4-(4-(4-methylpiperazin-1-yl)phenoxy)quinolin-6-yl)benzonitrile] is “MAPKAPK2”; for `Cc1ccc(-c2ccc3nccc(Nc4ccc(N(C)C5CCN(C)C5)cc4)c3c2)nc1` (stereo not drawn) [N1-methyl-N4-(6-(5-methylpyridin-2-yl)quinolin-4-yl)-N1-(1-methylpyrrolidin-3-yl)benzene-1,4-diamine] it is “MAPKAPK2”; for `N#Cc1ccc(-c2ccc3nccc(Nc4ccc(N5CCN(CCO)CC5)cc4)c3c2)cc1` [4-(4-(4-(4-(2-hydroxyethyl)piperazin-1-yl)phenylamino)quinolin-6-yl)benzonitrile] it is “MAPKAPK2”.
`CN(C)C1CCN(c2ccc(Nc3ccnc4ccc(-c5nccs5)cc34)cc2)C1` (stereo not drawn) [N-(4-(3-(dimethylamino)pyrrolidin-1-yl)phenyl)-6-(thiazol-2-yl)quinolin-4-amine]: the Activity result is “MAPKAPK2”.
Consider `CCN(CC)c1ccc(-c2ccc3nccc(Nc4ccc(N5CCC(N(C)C)C5)cc4)c3c2)cc1` (stereo not drawn) [6-(4-(diethylamino)phenyl)-N-(4-(3-(dimethylamino)pyrrolidin-1-yl)phenyl)quinolin-4-amine], for which the Activity entry is “MAPKAPK2”.
On to `CN(C)C(=O)CN1CCN(c2ccc(Nc3ccnc4ccc(-c5ccc(C#N)cc5)cc34)cc2)CC1` [2-(4-(4-(6-(4-cyanophenyl)quinolin-4-ylamino)phenyl)piperazin-1-yl)-N,N-dimethylacetamide], for which the Activity result is reported as “MAPKAPK2”.
With `CN(C)C1CCN(c2ccc(Nc3ccnc4ccc(-c5ccc6ccccc6c5)cc34)cc2)C1` (stereo not drawn) [N-(4-(3-(dimethylamino)pyrrolidin-1-yl)phenyl)-6-(naphthalen-2-yl)quinolin-4-amine], the Activity result was “MAPKAPK2”.
Regarding `CN1CCN(c2ccc(Nc3ccnc4ccc(-c5ccc(C#N)cc5)cc34)cn2)CC1` [4-(4-(6-(4-methylpiperazin-1-yl)pyridin-3-ylamino)quinolin-6-yl)benzonitrile], the Activity result was “MAPKAPK2”.
Take `CN(C)[C@@H]1CCN(c2ccc(Nc3ccnc4ccc(-c5ccc6ccccc6c5)cc34)cc2)C1` [(R)-N-(4-(3-(dimethylamino)pyrrolidin-1-yl)phenyl)-6-(naphthalen-2-yl)quinolin-4-amine]: the Activity result is “MAPKAPK2”.
As for `CN(C)[C@H]1CCN(c2ccc(Nc3ccnc4ccc(-c5ccc6ccccc6c5)cc34)cc2)C1` [(S)-N-(4-(3-(dimethylamino)pyrrolidin-1-yl)phenyl)-6-(naphthalen-2-yl)quinolin-4-amine], the Activity result is given as “MAPKAPK2”.
The entry for `CN1CCC(N(C)c2ccc(Nc3ccnc4ccc(-c5ccc(C#N)cc5)cc34)cc2)C1` (stereo not drawn) [4-(4-(4-(methyl(1-methylpyrrolidin-3-yl)amino)phenylamino)quinolin-6-yl)benzonitrile] is “MAPKAPK2”.
